Test results taken from US20090047221A1 (NIPRI LIMITED, priority 2004, published 2009).

Tested on: cancer cell line MDA-MB-468
Assay: Combination index with known cancer drugs against proliferation (Calcusyn software)
Format: cell-based
From the text: A combination index of less than 0.1 indicates very strong synergy; a combination index of 0.1 to 0.3 indicates strong synergism; a combination index of 0.3 to 0.7 indicates synergism; a combination index of 0.7 to 0.85 indicates moderate synergism; a combination index of 0.85 to 0.9 indicates slight synergism and a combination index of 0.9 to 1.1 indicates only very slight synergism, said combination being close to merely additive.
The combination index may be calculated using calcusyn software.
Evidence of synergy was determined by calculation of the combination index using Calcusyn software.
The MTT assay was used initially to determine the anti-proliferative activity of the test compounds. In the MTT assay a yellow thiazolyl blue tetrazolium bromide salt (MTT) is reduced, in metabolically active cells, to form insoluble purple formazan crystals which are solubilised by the addition of dimethyl sulphoxide (DMSO). Absorbance readings can then be determined spectrophotometrically and a relationship established between control untreated cells and drug treated cells enabling the quantification of anti-proliferative changes as a result of drug treatment (Mosmann, 1983).
Wells containing medium only were used as blanks. Following the attachment period, cells were treated with appropriate drug concentrations (20 μl added per well). 40 mg/ml stock drug solutions, in DMSO, were stored at −20° C. and on the day of drug treatment working solutions of 4 mg/ml were prepared in medium which was further diluted to achieve final drug dilution volumes of 20 μl. Initial screening was determined over a concentration range of 1-200 μg/ml. For potent compounds the assay was repeated over a narrower concentration range to determine accurate IC50 values. Cells were exposed to drug for 96 h continual exposure (37° C., 5% CO2). Following the 96 h incubation, 50 μl MTT solution (1 g MTT/500 ml PBS) was added per well and the plates were further incubated for 4 h (37° C., 5% CO2). After incubation the MTT and medium was removed from the wells and 100 μl DMSO added per well. Plates were agitated on an orbital mixer platform (Stuart Scientific) for 10 minutes. Absorbance was measured at 570 nm on a Biotrak II (Amersham Bioscience) plate reader. IC50 values were calculated comparing control and drug treated cells.

CC(C)CC(NC(=O)c1ccc2c(c1O)C(=O)OC(C)C2)C(=O)OC(C)(C)C (mixture of isomers) [ALM-55, Leucine Tert-Butyl Ester Amide]
Combination Index (Cisplatin 1 × 10^−2 mol/L, ALM compound 0.1 μg/ml): 0.003 | Combination Index (Cisplatin 1 × 10^−2 mol/L, ALM compound 0.5 μg/ml): 0.009 | Combination Index (Cisplatin 1 × 10^−2 mol/L, ALM compound 1.0 μg/ml): 0.023 | Combination Index (Cisplatin 1 × 10^−2 mol/L, ALM compound 5.0 μg/ml): 0.11 | Combination Index (Cisplatin 1 × 10^−3 mol/L, ALM compound 0.1 μg/ml): 0.031 | Combination Index (Cisplatin 1 × 10^−3 mol/L, ALM compound 0.5 μg/ml): No | Combination Index (Cisplatin 1 × 10^−3 mol/L, ALM compound 1.0 μg/ml): No | Combination Index (Cisplatin 1 × 10^−3 mol/L, ALM compound 5.0 μg/ml): No | Combination Index (Cisplatin 1 × 10^−4 mol/L, ALM compound 0.1 μg/ml): No | Combination Index (Cisplatin 1 × 10^−4 mol/L, ALM compound 0.5 μg/ml): No | Combination Index (Cisplatin 1 × 10^−4 mol/L, ALM compound 1.0 μg/ml): No | Combination Index (Cisplatin 1 × 10^−4 mol/L, ALM compound 5.0 μg/ml): No | Combination Index (Cisplatin 1 × 10^−5 mol/L, ALM compound 0.1 μg/ml): No | Combination Index (Cisplatin 1 × 10^−5 mol/L, ALM compound 0.5 μg/ml): No | Combination Index (Cisplatin 1 × 10^−5 mol/L, ALM compound 1.0 μg/ml): No | Combination Index (Cisplatin 1 × 10^−5 mol/L, ALM compound 5.0 μg/ml): No | Combination Index (Cisplatin 1 × 10^−6 mol/L, ALM compound 0.1 μg/ml): No | Combination Index (Cisplatin 1 × 10^−6 mol/L, ALM compound 0.5 μg/ml): No | Combination Index (Cisplatin 1 × 10^−6 mol/L, ALM compound 1.0 μg/ml): No | Combination Index (Cisplatin 1 × 10^−6 mol/L, ALM compound 5.0 μg/ml): No | Combination Index (Cisplatin 1 × 10^−7 mol/L, ALM compound 0.1 μg/ml): 0.431 | Combination Index (Cisplatin 1 × 10^−7 mol/L, ALM compound 0.5 μg/ml): No | Combination Index (Cisplatin 1 × 10^−7 mol/L, ALM compound 1.0 μg/ml): No | Combination Index (Cisplatin 1 × 10^−7 mol/L, ALM compound 5.0 μg/ml): No | Combination Index (Cisplatin 1 × 10^−8 mol/L, ALM compound 0.1 μg/ml): 0.155 | Combination Index (Cisplatin 1 × 10^−8 mol/L, ALM compound 0.5 μg/ml): No | Combination Index (Cisplatin 1 × 10^−8 mol/L, ALM compound 1.0 μg/ml): No | Combination Index (Cisplatin 1 × 10^−8 mol/L, ALM compound 5.0 μg/ml): No | Combination Index (Cisplatin 1 × 10^−9 mol/L, ALM compound 0.1 μg/ml): 0.093 | Combination Index (Cisplatin 1 × 10^−9 mol/L, ALM compound 0.5 μg/ml): 0.531 | Combination Index (Cisplatin 1 × 10^−9 mol/L, ALM compound 1.0 μg/ml): No | Combination Index (Cisplatin 1 × 10^−9 mol/L, ALM compound 5.0 μg/ml): No | Combination Index (Doxorubicin 1 × 10^−4 mol/L, ALM compound 0.1 μg/ml): No | Combination Index (Doxorubicin 1 × 10^−4 mol/L, ALM compound 0.5 μg/ml): No | Combination Index (Doxorubicin 1 × 10^−4 mol/L, ALM compound 1.0 μg/ml): No | Combination Index (Doxorubicin 1 × 10^−4 mol/L, ALM compound 5.0 μg/ml): No | Combination Index (Doxorubicin 1 × 10^−5 mol/L, ALM compound 0.1 μg/ml): 0.284 | Combination Index (Doxorubicin 1 × 10^−5 mol/L, ALM compound 0.5 μg/ml): No | Combination Index (Doxorubicin 1 × 10^−5 mol/L, ALM compound 1.0 μg/ml): 0.344 | Combination Index (Doxorubicin 1 × 10^−5 mol/L, ALM compound 5.0 μg/ml): 0.969 | Combination Index (Etoposide 1 × 10^−4 mol/L, ALM compound 0.1 μg/ml): 0.312 | Combination Index (Etoposide 1 × 10^−4 mol/L, ALM compound 0.5 μg/ml): 0.142 | Combination Index (Etoposide 1 × 10^−4 mol/L, ALM compound 1.0 μg/ml): 0.473 | Combination Index (Etoposide 1 × 10^−4 mol/L, ALM compound 5.0 μg/ml): 0.335 | Combination Index (Etoposide 1 × 10^−5 mol/L, ALM compound 0.1 μg/ml): No | Combination Index (Etoposide 1 × 10^−5 mol/L, ALM compound 0.5 μg/ml): 1.136 | Combination Index (Etoposide 1 × 10^−5 mol/L, ALM compound 1.0 μg/ml): No | Combination Index (Etoposide 1 × 10^−5 mol/L, ALM compound 5.0 μg/ml): No | Combination Index (Etoposide 1 × 10^−6 mol/L, ALM compound 0.1 μg/ml): No | Combination Index (Etoposide 1 × 10^−6 mol/L, ALM compound 0.5 μg/ml): No | Combination Index (Etoposide 1 × 10^−6 mol/L, ALM compound 1.0 μg/ml): No | Combination Index (Etoposide 1 × 10^−6 mol/L, ALM compound 5.0 μg/ml): No | Combination Index (Etoposide 1 × 10^−7 mol/L, ALM compound 0.1 μg/ml): No | Combination Index (Etoposide 1 × 10^−7 mol/L, ALM compound 0.5 μg/ml): No | Combination Index (Etoposide 1 × 10^−7 mol/L, ALM compound 1.0 μg/ml): No | Combination Index (Etoposide 1 × 10^−7 mol/L, ALM compound 5.0 μg/ml): No | Combination Index (Etoposide 1 × 10^−8 mol/L, ALM compound 0.1 μg/ml): 0.414 | Combination Index (Etoposide 1 × 10^−8 mol/L, ALM compound 0.5 μg/ml): 0.910 | Combination Index (Etoposide 1 × 10^−8 mol/L, ALM compound 1.0 μg/ml): No | Combination Index (Etoposide 1 × 10^−8 mol/L, ALM compound 5.0 μg/ml): No | Combination Index (Etoposide 1 × 10^−9 mol/L, ALM compound 0.1 μg/ml): 0.318 | Combination Index (Etoposide 1 × 10^−9 mol/L, ALM compound 0.5 μg/ml): 0.829 | Combination Index (Etoposide 1 × 10^−9 mol/L, ALM compound 1.0 μg/ml): No | Combination Index (Etoposide 1 × 10^−9 mol/L, ALM compound 5.0 μg/ml): No | Combination Index (Etoposide 1 × 10^−10 mol/L, ALM compound 0.1 μg/ml): 0.267 | Combination Index (Etoposide 1 × 10^−10 mol/L, ALM compound 0.5 μg/ml): 0.494 | Combination Index (Etoposide 1 × 10^−10 mol/L, ALM compound 1.0 μg/ml): No | Combination Index (Etoposide 1 × 10^−10 mol/L, ALM compound 5.0 μg/ml): No | Combination Index (Irinotecan 1 × 10^−3 mol/L, ALM compound 0.1 μg/ml): 1.133 | Combination Index (Irinotecan 1 × 10^−3 mol/L, ALM compound 0.5 μg/ml): 0.604 | Combination Index (Irinotecan 1 × 10^−3 mol/L, ALM compound 1.0 μg/ml): 0.531 | Combination Index (Irinotecan 1 × 10^−3 mol/L, ALM compound 5.0 μg/ml): 0.611 | Combination Index (Irinotecan 1 × 10^−4 mol/L, ALM compound 0.1 μg/ml): 0.205 | Combination Index (Irinotecan 1 × 10^−4 mol/L, ALM compound 0.5 μg/ml): 0.136 | Combination Index (Irinotecan 1 × 10^−4 mol/L, ALM compound 1.0 μg/ml): 0.053 | Combination Index (Irinotecan 1 × 10^−4 mol/L, ALM compound 5.0 μg/ml): 0.128 | Combination Index (Irinotecan 1 × 10^−5 mol/L, ALM compound 0.1 μg/ml): No | Combination Index (Irinotecan 1 × 10^−5 mol/L, ALM compound 0.5 μg/ml): 0.682 | Combination Index (Irinotecan 1 × 10^−5 mol/L, ALM compound 1.0 μg/ml): No | Combination Index (Irinotecan 1 × 10^−5 mol/L, ALM compound 5.0 μg/ml): No | Combination Index (Irinotecan 1 × 10^−6 mol/L, ALM compound 0.1 μg/ml): No | Combination Index (Irinotecan 1 × 10^−6 mol/L, ALM compound 0.5 μg/ml): No | Combination Index (Irinotecan 1 × 10^−6 mol/L, ALM compound 1.0 μg/ml): No | Combination Index (Irinotecan 1 × 10^−6 mol/L, ALM compound 5.0 μg/ml): No | Combination Index (Irinotecan 1 × 10^−7 mol/L, ALM compound 0.1 μg/ml): No | Combination Index (Irinotecan 1 × 10^−7 mol/L, ALM compound 0.5 μg/ml): No | Combination Index (Irinotecan 1 × 10^−7 mol/L, ALM compound 1.0 μg/ml): No | Combination Index (Irinotecan 1 × 10^−7 mol/L, ALM compound 5.0 μg/ml): No | Combination Index (Irinotecan 1 × 10^−8 mol/L, ALM compound 0.1 μg/ml): No | Combination Index (Irinotecan 1 × 10^−8 mol/L, ALM compound 0.5 μg/ml): 0.500 | Combination Index (Irinotecan 1 × 10^−8 mol/L, ALM compound 1.0 μg/ml): No | Combination Index (Irinotecan 1 × 10^−8 mol/L, ALM compound 5.0 μg/ml): No | Combination Index (Irinotecan 1 × 10^−9 mol/L, ALM compound 0.1 μg/ml): No | Combination Index (Irinotecan 1 × 10^−9 mol/L, ALM compound 0.5 μg/ml): No | Combination Index (Irinotecan 1 × 10^−9 mol/L, ALM compound 1.0 μg/ml): No | Combination Index (Irinotecan 1 × 10^−9 mol/L, ALM compound 5.0 μg/ml): No | Combination Index (Irinotecan 1 × 10^−10 mol/L, ALM compound 0.1 μg/ml): 0.061 | Combination Index (Irinotecan 1 × 10^−10 mol/L, ALM compound 0.5 μg/ml): No | Combination Index (Irinotecan 1 × 10^−10 mol/L, ALM compound 1.0 μg/ml): No | Combination Index (Irinotecan 1 × 10^−10 mol/L, ALM compound 5.0 μg/ml): No
